Source: the supplement of paper PMC10307832

Assays:
Test in all cases: relative viability (nuclei count vs DMSO), 5 days (fraction); higher = more cells survive
SK-LU-1 = test system: SK-LU-1
Summary of the method: (§1)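 Relative viability divides the nuclei count in treated wells by that in vehicle wells. Lung cancer cell lines were seeded in 1536-well plates, dosed by pin tool the next day, and fixed and stained after 5 days in one step with final 0.05% Triton X-100, 1% formaldehyde and 1 ug/ml Hoechst. Dosing was a single drug or a fixed anchor-drug dose plus five library-drug doses (not always all listed) in √10 steps, and values are medians of duplicate plates imaged at 4×.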

NCI-H1755 = test system: NCI-H1755
Summary of the method: as §1

NCI-H2342 = test system: NCI-H2342
Summary of the method: as §1

NCI-H460 = test system: NCI-H460
Summary of the method: as §1

A-427 = test system: A-427
Summary of the method: as §1

PC-3 [JPC-3] = test system: PC-3 [JPC-3]
Summary of the method: as §1

NCI-H522 = test system: NCI-H522
Summary of the method: as §1

NCI-H358 = test system: NCI-H358
Summary of the method: as §1

NCI-H1975 = test system: NCI-H1975
Summary of the method: as §1

HOP-62 = test system: HOP-62
Summary of the method: as §1

NCI-H1915 = test system: NCI-H1915
Summary of the method: as §1

NCI-H2126 = test system: NCI-H2126
Summary of the method: as §1

NCI-H1792 = test system: NCI-H1792
Summary of the method: as §1

HCC-15 = test system: HCC-15
Summary of the method: as §1

SW 1573 = test system: SW 1573
Summary of the method: as §1

NCI-H1734 = test system: NCI-H1734
Summary of the method: as §1

LC-2-ad = test system: LC-2-ad
Summary of the method: as §1

NCI-H2228 = test system: NCI-H2228
Summary of the method: as §1

NCI-H647 = test system: NCI-H647
Summary of the method: as §1

NCI-H2347 = test system: NCI-H2347
Summary of the method: as §1

LXF-289 = test system: LXF-289
Summary of the method: as §1

RERF-LC-KJ = test system: RERF-LC-KJ
Summary of the method: as §1

LOU-NH91 = test system: LOU-NH91
Summary of the method: as §1

HCC-78 = test system: HCC-78
Summary of the method: as §1

`Clc1ccc(Nc2nnc(Cc3ccncc3)c3ccccc23)cc1` [Vatalanib] + CC(=O)Nc1cccc(-n2c(=O)n(C3CC3)c(=O)c3c(Nc4ccc(I)cc4F)n(C)c(=O)c(C)c32)c1 [Trametinib] (partner 0.02 µM) was tested, and the relative viability (SK-LU-1; first compound 0.04 µM) was 0.59, the relative viability (SK-LU-1; first compound 0.1265 µM) was 0.54 and the relative viability (SK-LU-1; first compound 0.4 µM) was 0.666. The relative viability (SK-LU-1; first compound 1.265 µM) was 0.533, the relative viability (SK-LU-1; first compound 4 µM) was 0.599 and the relative viability (NCI-H1755; first compound 0.04 µM) was 0.734. It also gave a relative viability (NCI-H1755; first compound 0.1265 µM) of 0.812, a relative viability (NCI-H1755; first compound 0.4 µM) of 0.753 and a relative viability (NCI-H1755; first compound 1.265 µM) of 0.788. For the same compound, the relative viability (NCI-H1755; first compound 4 µM) was 0.717, the relative viability (NCI-H2342; first compound 0.04 µM) was 0.766 and the relative viability (NCI-H2342; first compound 0.1265 µM) was 0.794. The relative viability (NCI-H2342; first compound 0.4 µM) was 0.737, the relative viability (NCI-H2342; first compound 1.265 µM) was 0.747 and the relative viability (NCI-H2342; first compound 4 µM) was 0.804. For the same compound, the relative viability (NCI-H460; first compound 0.04 µM) was 0.178, the relative viability (NCI-H460; first compound 0.1265 µM) was 0.11 and the relative viability (NCI-H460; first compound 0.4 µM) was 0.201. It also gave a relative viability (NCI-H460; first compound 1.265 µM) of 0.135, a relative viability (NCI-H460; first compound 4 µM) of 0.0924 and a relative viability (A-427; first compound 0.04 µM) of 0.741. For the same compound, the relative viability (A-427; first compound 0.1265 µM) was 0.743, the relative viability (A-427; first compound 0.4 µM) was 0.867 and the relative viability (A-427; first compound 4 µM) was 0.73. For the same compound, the relative viability (PC-3 [JPC-3]; first compound 0.04 µM) was 0.78, the relative viability (PC-3 [JPC-3]; first compound 0.1265 µM) was 0.675 and the relative viability (PC-3 [JPC-3]; first compound 0.4 µM) was 0.547. It also gave a relative viability (PC-3 [JPC-3]; first compound 1.265 µM) of 0.619, a relative viability (PC-3 [JPC-3]; first compound 4 µM) of 0.646 and a relative viability (NCI-H522; first compound 0.04 µM) of 0.73. It also gave a relative viability (NCI-H522; first compound 0.1265 µM) of 0.714, a relative viability (NCI-H522; first compound 0.4 µM) of 0.714 and a relative viability (NCI-H522; first compound 1.265 µM) of 0.754. For the same compound, the relative viability (NCI-H522; first compound 4 µM) was 0.882, the relative viability (NCI-H358; first compound 0.04 µM) was 0.156 and the relative viability (NCI-H358; first compound 0.1265 µM) was 0.122. It also gave a relative viability (NCI-H358; first compound 0.4 µM) of 0.151, a relative viability (NCI-H358; first compound 1.265 µM) of 0.13 and a relative viability (NCI-H358; first compound 4 µM) of 0.138. For the same compound, the relative viability (NCI-H1975; first compound 0.04 µM) was 0.317, the relative viability (NCI-H1975; first compound 0.1265 µM) was 0.345 and the relative viability (NCI-H1975; first compound 0.4 µM) was 0.434. For the same compound, the relative viability (NCI-H1975; first compound 1.265 µM) was 0.315, the relative viability (NCI-H1975; first compound 4 µM) was 0.361 and the relative viability (HOP-62; first compound 0.04 µM) was 0.388. The relative viability (HOP-62; first compound 0.1265 µM) was 0.382, the relative viability (HOP-62; first compound 0.4 µM) was 0.42 and the relative viability (HOP-62; first compound 1.265 µM) was 0.367. The relative viability (HOP-62; first compound 4 µM) was 0.355, the relative viability (NCI-H1915; first compound 0.04 µM) was 0.32 and the relative viability (NCI-H1915; first compound 0.1265 µM) was 0.34. It also gave a relative viability (NCI-H1915; first compound 0.4 µM) of 0.323, a relative viability (NCI-H1915; first compound 1.265 µM) of 0.298 and a relative viability (NCI-H1915; first compound 4 µM) of 0.295. It also gave a relative viability (NCI-H2126; first compound 0.04 µM) of 0.539, a relative viability (NCI-H2126; first compound 0.1265 µM) of 0.612 and a relative viability (NCI-H2126; first compound 0.4 µM) of 0.591. For the same compound, the relative viability (NCI-H2126; first compound 1.265 µM) was 0.528, the relative viability (NCI-H2126; first compound 4 µM) was 0.536 and the relative viability (NCI-H1792; first compound 0.04 µM) was 0.528. The relative viability (NCI-H1792; first compound 0.1265 µM) was 0.395, the relative viability (NCI-H1792; first compound 0.4 µM) was 0.394 and the relative viability (NCI-H1792; first compound 1.265 µM) was 0.399. It also gave a relative viability (NCI-H1792; first compound 4 µM) of 0.456, a relative viability (HCC-15; first compound 0.04 µM) of 0.392 and a relative viability (HCC-15; first compound 0.1265 µM) of 0.412. For the same compound, the relative viability (HCC-15; first compound 0.4 µM) was 0.404, the relative viability (HCC-15; first compound 1.265 µM) was 0.365 and the relative viability (HCC-15; first compound 4 µM) was 0.365. It also gave a relative viability (SW 1573; first compound 0.1265 µM) of 0.569, a relative viability (SW 1573; first compound 0.4 µM) of 0.607 and a relative viability (SW 1573; first compound 1.265 µM) of 0.58. It also gave a relative viability (SW 1573; first compound 4 µM) of 0.564, a relative viability (NCI-H1734; first compound 0.04 µM) of 0.731 and a relative viability (NCI-H1734; first compound 0.1265 µM) of 0.673. The relative viability (NCI-H1734; first compound 0.4 µM) was 0.705, the relative viability (NCI-H1734; first compound 1.265 µM) was 0.655 and the relative viability (NCI-H1734; first compound 4 µM) was 0.684. It also gave a relative viability (LC-2-ad; first compound 0.04 µM) of 0.97, a relative viability (LC-2-ad; first compound 0.1265 µM) of 0.77 and a relative viability (LC-2-ad; first compound 0.4 µM) of 0.965. It also gave a relative viability (LC-2-ad; first compound 1.265 µM) of 0.919, a relative viability (LC-2-ad; first compound 4 µM) of 0.892 and a relative viability (NCI-H2228; first compound 0.04 µM) of 0.542. For the same compound, the relative viability (NCI-H2228; first compound 0.1265 µM) was 0.467, the relative viability (NCI-H2228; first compound 0.4 µM) was 0.666 and the relative viability (NCI-H2228; first compound 1.265 µM) was 0.782. It also gave a relative viability (NCI-H2228; first compound 4 µM) of 0.44, a relative viability (NCI-H647; first compound 0.04 µM) of 0.538 and a relative viability (NCI-H647; first compound 0.1265 µM) of 0.614. It also gave a relative viability (NCI-H647; first compound 0.4 µM) of 0.581, a relative viability (NCI-H647; first compound 1.265 µM) of 0.407 and a relative viability (NCI-H647; first compound 4 µM) of 0.499. It also gave a relative viability (NCI-H2347; first compound 0.04 µM) of 0.278, a relative viability (NCI-H2347; first compound 0.1265 µM) of 0.277 and a relative viability (NCI-H2347; first compound 0.4 µM) of 0.279. The relative viability (NCI-H2347; first compound 1.265 µM) was 0.266, the relative viability (NCI-H2347; first compound 4 µM) was 0.309 and the relative viability (LXF-289; first compound 0.04 µM) was 0.688. The relative viability (LXF-289; first compound 0.1265 µM) was 0.647, the relative viability (LXF-289; first compound 0.4 µM) was 0.686 and the relative viability (LXF-289; first compound 1.265 µM) was 0.668. The relative viability (LXF-289; first compound 4 µM) was 0.626, the relative viability (RERF-LC-KJ; first compound 0.04 µM) was 0.931 and the relative viability (RERF-LC-KJ; first compound 0.1265 µM) was 0.867. It also gave a relative viability (RERF-LC-KJ; first compound 0.4 µM) of 0.903, a relative viability (RERF-LC-KJ; first compound 1.265 µM) of 0.791 and a relative viability (RERF-LC-KJ; first compound 4 µM) of 0.782. The relative viability (LOU-NH91; first compound 0.04 µM) was 0.769, the relative viability (LOU-NH91; first compound 0.1265 µM) was 0.764 and the relative viability (LOU-NH91; first compound 0.4 µM) was 0.794. For the same compound, the relative viability (LOU-NH91; first compound 1.265 µM) was 0.746, the relative viability (LOU-NH91; first compound 4 µM) was 0.765 and the relative viability (HCC-78; first compound 0.04 µM) was 0.729. The relative viability (HCC-78; first compound 0.1265 µM) was 0.794, the relative viability (HCC-78; first compound 0.4 µM) was 0.809 and the relative viability (HCC-78; first compound 1.265 µM) was 0.822. For the same compound, the relative viability (HCC-78; first compound 4 µM) was 0.694.
